In US20050074810A1, “Method for non-invasilvely determining the relative levels of two biological substances” (priority 2001, published 2005):

Assay: In vitro reverse iontophoretic extraction of valproate and glutamate (Example 1)
Assay type: in vitro ADME, pig
Conditions: glutamate 60 μM
Method: The cathodal chamber was sampled only at the end of 5 hours of current passage.
Subsequent to this first period of 5 hours at 0.4 mA, a reduced current of 0.1 mA was passed for the next 19 hours, at the end of which both anodal and cathodal chambers were sampled.
The total experiment therefore lasted 24 hours.

[1] = subdermal valproate 21 μM, 4-5 h, 0.4 mA
[2] = subdermal valproate 21 μM, 5-24 h, 0.1 mA
[3] = subdermal valproate 35 μM, 4-5 h, 0.4 mA
[4] = subdermal valproate 35 μM, 5-24 h, 0.1 mA
[5] = subdermal valproate 70 μM, 4-5 h, 0.4 mA
[6] = subdermal valproate 70 μM, 5-24 h, 0.1 mA
[7] = subdermal valproate 104.5 μM, 4-5 h, 0.4 mA
[8] = subdermal valproate 104.5 μM, 5-24 h, 0.1 mA

Transport number (×10^6) (subdermal valproate 21 μM, 0-1 h): 7.89 ± 4.51 ×10^6
Extraction flux (subdermal valproate 21 μM, 0-1 h, 0.4 mA): 118 pmoles · h^−1 · cm^−2
Transport number (×10^6) (subdermal valproate 21 μM, 1-2 h): 20.6 ± 7.92 ×10^6
Extraction flux (subdermal valproate 21 μM, 1-2 h, 0.4 mA): 308 pmoles · h^−1 · cm^−2
Transport number (×10^6) (subdermal valproate 21 μM, 2-3 h): 29.5 ± 7.38 ×10^6
Extraction flux (subdermal valproate 21 μM, 2-3 h, 0.4 mA): 440 pmoles · h^−1 · cm^−2
Transport number (×10^6) (subdermal valproate 21 μM, 3-4 h): 32.1 ± 5.77 ×10^6
Extraction flux (subdermal valproate 21 μM, 3-4 h, 0.4 mA): 479 pmoles · h^−1 · cm^−2
Extraction flux [1]: 570 pmoles · h^−1 · cm^−2
Transport number (×10^6) [1]: 38.2 ± 5.19 ×10^6
Extraction flux [2]: 142 pmoles · h^−1 · cm^−2
Transport number (×10^6) [2]: 38.1 ± 6.24 ×10^6
Transport number (×10^6) (subdermal valproate 35 μM, 0-1 h): 10.4 ± 5.47 ×10^6
Extraction flux (subdermal valproate 35 μM, 0-1 h, 0.4 mA): 155 pmoles · h^−1 · cm^−2
Transport number (×10^6) (subdermal valproate 35 μM, 1-2 h): 24.6 ± 5.83 ×10^6
Extraction flux (subdermal valproate 35 μM, 1-2 h, 0.4 mA): 367 pmoles · h^−1 · cm^−2
Transport number (×10^6) (subdermal valproate 35 μM, 2-3 h): 32.4 ± 5.71 ×10^6
Extraction flux (subdermal valproate 35 μM, 2-3 h, 0.4 mA): 484 pmoles · h^−1 · cm^−2
Transport number (×10^6) (subdermal valproate 35 μM, 3-4 h): 38.2 ± 2.84 ×10^6
Extraction flux (subdermal valproate 35 μM, 3-4 h, 0.4 mA): 571 pmoles · h^−1 · cm^−2
Extraction flux [3]: 588 pmoles · h^−1 · cm^−2
Transport number (×10^6) [3]: 39.4 ± 3.28 ×10^6
Extraction flux [4]: 143 pmoles · h^−1 · cm^−2
Transport number (×10^6) [4]: 38.3 ± 4.24 ×10^6
Transport number (×10^6) (subdermal valproate 70 μM, 0-1 h): 5.92 ± 3.03 ×10^6
Extraction flux (subdermal valproate 70 μM, 0-1 h, 0.4 mA): 88 pmoles · h^−1 · cm^−2
Transport number (×10^6) (subdermal valproate 70 μM, 1-2 h): 17.9 ± 6.88 ×10^6
Extraction flux (subdermal valproate 70 μM, 1-2 h, 0.4 mA): 267 pmoles · h^−1 · cm^−2
Transport number (×10^6) (subdermal valproate 70 μM, 2-3 h): 26.0 ± 6.32 ×10^6
Extraction flux (subdermal valproate 70 μM, 2-3 h, 0.4 mA): 388 pmoles · h^−1 · cm^−2
Transport number (×10^6) (subdermal valproate 70 μM, 3-4 h): 33.1 ± 6.80 ×10^6
Extraction flux (subdermal valproate 70 μM, 3-4 h, 0.4 mA): 494 pmoles · h^−1 · cm^−2
Extraction flux [5]: 524 pmoles · h^−1 · cm^−2
Transport number (×10^6) [5]: 35.1 ± 5.52 ×10^6
Extraction flux [6]: 146 pmoles · h^−1 · cm^−2
Transport number (×10^6) [6]: 39.2 ± 6.45 ×10^6
Transport number (×10^6) (subdermal valproate 104.5 μM, 0-1 h): 9.92 ± 4.20 ×10^6
Extraction flux (subdermal valproate 104.5 μM, 0-1 h, 0.4 mA): 148 pmoles · h^−1 · cm^−2
Transport number (×10^6) (subdermal valproate 104.5 μM, 1-2 h): 24.2 ± 4.79 ×10^6
Extraction flux (subdermal valproate 104.5 μM, 1-2 h, 0.4 mA): 361 pmoles · h^−1 · cm^−2
Transport number (×10^6) (subdermal valproate 104.5 μM, 2-3 h): 32.8 ± 3.60 ×10^6
Extraction flux (subdermal valproate 104.5 μM, 2-3 h, 0.4 mA): 490 pmoles · h^−1 · cm^−2
Transport number (×10^6) (subdermal valproate 104.5 μM, 3-4 h): 37.9 ± 4.98 ×10^6
Extraction flux (subdermal valproate 104.5 μM, 3-4 h, 0.4 mA): 566 pmoles · h^−1 · cm^−2
Extraction flux [7]: 599 pmoles · h^−1 · cm^−2
Transport number (×10^6) [7]: 40.1 ± 5.16 ×10^6
Extraction flux [8]: 157 pmoles · h^−1 · cm^−2
Transport number (×10^6) [8]: 42.2 ± 6.22 ×10^6
Structure (SMILES): N[C@@H](CCC(=O)O)C(=O)O [Glutamate, glutamate]
